The test system of series [1] is MCF7. As to the kind of experiment: Cytotoxicity against human MCF7 cells assessed as reduction in cell viability at >50 ug/ml by resazurin microplate assay. It is filed as functional, cell-based.
For series [2], the system named is KB. As to the kind of experiment: Cytotoxicity against human KB cells assessed as reduction in cell viability at >50 ug/ml by resazurin microplate assay. It is filed as functional, cell-based.
In series [3] the test system is Vero. As to the kind of experiment: Cytotoxicity against African green monkey Vero cells assessed as reduction in cell viability by green fluorescent protein-based assay. Further details: species or system Chlorocebus sabaeus.
Series [4] has as its system KB. As to the kind of experiment: Cytotoxicity against human KB cells assessed as reduction in cell viability by resazurin microplate assay. It is filed as functional, cell-based. (The colour change of resazurin is a common sign of viable cells or microbes.)
In series [5] the test system is MCF7. As to the kind of experiment: Cytotoxicity against human MCF7 cells assessed as reduction in cell viability by resazurin microplate assay. It is filed as functional, cell-based.
Series [6] relates to Vero. As to the kind of experiment: Cytotoxicity against African green monkey Vero cells assessed as reduction in cell viability at >50 ug/ml by green fluorescent protein-based assay. Conditions: Chlorocebus sabaeus.
Where [7] appears, read: Chlorocebus sabaeus, Vero, read-out: IC50.
The mark [8] stands for this setting: Homo sapiens, KB, read-out: IC50.
The mark [9] stands for this setting: Homo sapiens, MCF7, read-out: IC50.

The source made the active and inactive calls. No cut-off for these calls is given here.

Turning to `C[C@H]1CCCC(=O)CCCCCc2cc(O)cc(O)c2C(=O)O1` [ZEARALANONE], the result in series [1] and in series [2] was inactive. The IC50 in series [3] (setting [7]) is 151 µM; in series [4] (kb) it was “Not Active”; in series [5] (mcf7), “Not Active”.
Consider `C[C@H]1CCCC(=O)CCC/C=C/c2c(Cl)c(O)cc(O)c2C(=O)O1`, for which the result in series [1] was inactive. Further, the half-maximal inhibitory concentration (IC50) was 140 µM in series [3] (setting [7]), 89.9 µM in series [4] (setting [8]) and “Not Active” in series [5] (mcf7).
`C[C@H]1CCC[C@H](O)CCCCCc2cc(O)cc(O)c2C(=O)O1` [ZERANOL]: the outcome in series [1] and in series [2] was inactive. The figures for the IC50 in series [3] (setting [7]), in series [4] (kb) and in series [5] (mcf7) were 50 µM, “Not Active” and “Not Active”, respectively.
With `CCCCCCCCOc1cc(O)c2c(c1)/C=C/CCC[C@H](O)CCC[C@H](C)OC2=O`, the IC50 amounted to 73.4 µM in series [3] (setting [7]), 82.2 µM in series [4] (setting [8]) and 93.6 µM in series [5] (setting [9]).
Turning to `CCC(=O)Oc1cc(O)c2c(c1)/C=C/CCCC(=O)CCC[C@H](C)OC2=O`, in series [1], the result was inactive. Also, the IC50 is 44.1 µM in series [3] (setting [7]), 52.4 µM in series [4] (setting [8]) and “Not Active” in series [5] (mcf7).
`COc1cc(OC)c2c(c1Cl)/C=C/CCCC(=O)CCC[C@H](C)OC2=O`: the result in series [1] and in series [2] was inactive. Moreover, the half-maximal inhibitory concentration (IC50) result in series [3] (vero), in series [4] (kb) and in series [5] (mcf7) was “Not Active” each time. Also, in series [6], the Activity entry is reported as “Non-toxic”.
For the compound `CC/C(=C(\c1ccccc1)c1ccc(OCCN(C)C)cc1)c1ccccc1` [TAMOXIFEN], the IC50 in series [5] (setting [9]) is 19.3 µM.
Turning to `C[C@H]1CCC[C@@H](O)CCC/C=C/c2cc(O)cc(O)c2C(=O)O1`, the result in series [1] and in series [2] was inactive. For the same compound, the results for the IC50 in series [3] (setting [7]), in series [4] (kb) and in series [5] (mcf7) were 25.4 µM, “Not Active” and “Not Active”, respectively.
Turning to `COc1cc(O)c2c(c1)CCCCC[C@@H](O)CCC[C@H](C)OC2=O`, the result in series [1] and in series [2] was inactive. Moreover, the concentration for half-maximal inhibition (IC50) result in series [3] (vero), in series [4] (kb) and in series [5] (mcf7) was “Not Active” each time. Also, the Activity result in series [6] is “Non-toxic”.
Regarding `CC(=O)Oc1cc(O)c2c(c1)/C=C/CCC[C@@H](O)CCC[C@H](C)OC2=O`, the values for the IC50 in series [3] (setting [7]), in series [4] (setting [8]) and in series [5] (setting [9]) were 136 µM, 51.6 µM and 89 µM, respectively.
Regarding `COc1cc2c(c(OC)c1)C(=O)O[C@@H](C)CCCC(=O)CCC/C=C/2`, the outcome in series [1] and in series [2] was inactive. In addition, the half-maximal inhibitory concentration (IC50) result in series [3] (vero), in series [4] (kb) and in series [5] (mcf7) was “Not Active” throughout. Further, in series [6], the Activity result is recorded as “Non-toxic”.
As for `CCCOc1cc(O)c2c(c1)/C=C/CCC[C@H](O)CCC[C@H](C)OC2=O`, the half-inhibitory concentration (IC50) in series [3] (setting [7]) stood at 53.3 µM; in series [4] (setting [8]), 83.4 µM; in series [5] (setting [9]), 81.9 µM.
The corresponding values for `CCCCCCCCOc1cc(O)c2c(c1)/C=C/CCC[C@@H](O)CCC[C@H](C)OC2=O` are 24.2 µM, 40.9 µM and 75.2 µM.
As for `Cc1c2ccncc2c(C)c2c1[nH]c1ccccc12` [ELLIPTECINE], the half-inhibitory concentration (IC50) was found to be 4.26 µM in series [3] (setting [7]) and 8.28 µM in series [4] (setting [8]).
Consider `CCC(=O)Oc1cc(O)c2c(c1)/C=C/CCC[C@H](O)CCC[C@H](C)OC2=O`, for which the outcome in series [1] was inactive. For the same compound, the values for the IC50 in series [3] (setting [7]), in series [4] (setting [8]) and in series [5] (mcf7) were 35 µM, 33.4 µM and “Not Active”, respectively.
As for `CCCOc1cc(O)c2c(c1)/C=C/CCC[C@@H](O)CCC[C@H](C)OC2=O`, the results for the IC50 in series [3] (setting [7]), in series [4] (setting [8]) and in series [5] (setting [9]) were 26.2 µM, 35.7 µM and 43.8 µM, respectively.
As to `CC(=O)Oc1cc(O)c2c(c1)/C=C/CCCC(=O)CCC[C@H](C)OC2=O`, the outcome in series [1] was inactive. The concentration for half-maximal inhibition (IC50) in series [3] (setting [7]) is 134 µM; in series [4] (setting [8]) it was 52.9 µM; in series [5] (mcf7) it was “Not Active”.
For `COc1cccc2c1C(=O)c1c(O)c3c(c(O)c1C2=O)C[C@@](O)(C(=O)CO)C[C@@H]3O[C@H]1C[C@H](N)[C@H](O)[C@H](C)O1` [DOXORUBICIN], in series [4] (setting [8]), the IC50 came out at 1.06 µM.
Take `C[C@H]1CCC[C@H](O)CCC/C=C/c2cc(O)cc(O)c2C(=O)O1`: the outcome in series [1] was inactive. Besides, the values for the half-inhibitory concentration (IC50) in series [3] (setting [7]), in series [4] (setting [8]) and in series [5] (mcf7) were 60.3 µM, 100 µM and “Not Active”, respectively.
The corresponding values for `CC(=O)Oc1cc2c(c(OC(C)=O)c1)C(=O)O[C@@H](C)CCCC(=O)CCC/C=C/2` are “inactive”, 48 µM, 59.7 µM and “Not Active”.
The corresponding values for `CC(=O)Oc1cc(O)c2c(c1)/C=C/CCC[C@H](O)CCC[C@H](C)OC2=O` are “inactive”, 13.6 µM, 48.9 µM and “Not Active”.
`CCOc1cc(O)c2c(c1)/C=C/CCC[C@@H](O)CCC[C@H](C)OC2=O`: the figures for the IC50 entry in series [3] (vero), in series [4] (setting [8]) and in series [5] (setting [9]) were “Not Active”, 66.9 µM and 61.8 µM, respectively. Moreover, the Activity result in series [6] is reported as “Non-toxic”.
As to `C[C@H]1CCC[C@@H](O)CCCCCc2cc(O)cc(O)c2C(=O)O1` [TALERANOL], the outcome in series [1] and in series [2] was inactive. The IC50 in series [3] (setting [7]) was 22.6 µM; in series [4] (kb), “Not Active”; in series [5] (mcf7), “Not Active”.
For the compound `COc1cc(O)c2c(c1Cl)/C=C/CCCC(=O)CCC[C@H](C)OC2=O`, the result in series [1] was inactive. The half-inhibitory concentration (IC50) in series [3] (setting [7]) is 51.4 µM; in series [4] (setting [8]), 108 µM; in series [5] (mcf7) it was “Not Active”.
For the compound `CCC(=O)Oc1cc(O)c2c(c1)/C=C/CCC[C@@H](O)CCC[C@H](C)OC2=O`, the result in series [1] was inactive. Further, the IC50 was 129 µM in series [3] (setting [7]), 85.7 µM in series [4] (setting [8]) and “Not Active” in series [5] (mcf7).
As to `CCOc1cc(O)c2c(c1)/C=C/CCC[C@H](O)CCC[C@H](C)OC2=O`, the IC50 turned out to be 45.3 µM in series [3] (setting [7]), 60.1 µM in series [4] (setting [8]) and 70.2 µM in series [5] (setting [9]).
`COc1cc(O)c2c(c1)/C=C/CCC[C@H](O)CCC[C@H](C)OC2=O`: the result in series [1] was inactive. The IC50 result is “Not Active” in series [3] (vero), 56 µM in series [4] (setting [8]) and “Not Active” in series [5] (mcf7). Moreover, the Activity result in series [6] is reported as “Non-toxic”.
In the case of `COc1cc(O)c2c(c1)CCCCC[C@H](O)CCC[C@H](C)OC2=O`, the outcome in series [1] and in series [2] was inactive. Further, the concentration for half-maximal inhibition (IC50) is 148 µM in series [3] (setting [7]), “Not Active” in series [4] (kb) and “Not Active” in series [5] (mcf7).
As to `COc1cc(O)c2c(c1)/C=C/CCC[C@@H](O)CCC[C@H](C)OC2=O`, the IC50 in series [3] (setting [7]) was found to be 53.1 µM; in series [4] (setting [8]), 104 µM; in series [5] (setting [9]), 93.3 µM.

A word on the IC50: it is the concentration needed to halve the response being measured.

The values are drawn from ChEMBL document CHEMBL3826902, “Synthesis and cytotoxic activities of semisynthetic zearalenone analogues” (Bioorg Med Chem Lett, 2016).
